The values that follow come from US10123984B2, “Neprilysin inhibitors” (THERAVANCE BIOPHARMA R&D IP, LLC, priority 2011, dated 2018).

The target in one experiment is T1, NEP (Homo sapiens (Human), UniProt P08473).
Assay: not given
The conditions noted are these: relative to 21a (succinic acid substituent); quoted from Ksander et al.; cited from earlier work.
`C[C@H](CC(Cc1ccc(-c2ccccc2)cc1)NC(=O)CC(=O)O)C(=O)O` (stereo partly drawn) [Example 21g]: the decrease in activity is recorded as 18 fold.
Take `C[C@H](C[C@@H](Cc1ccc(-c2ccccc2)cc1)NC(=O)CCCCC(=O)O)C(=O)O` [Example 21f]: the decrease in activity was 65 fold.
Take `C[C@H](C[C@@H](Cc1ccc(-c2ccccc2)cc1)NC(=O)CCCC(=O)O)C(=O)O` [Example 21e]: the decrease in activity is on record as 18 fold.

A further experiment concerns the target T1, NEP. In words: Assay 1: in vitro enzyme inhibition assay at human NEP (fluorogenic peptide substrate). The experiment is classed as biochemical. Particulars: pKi values at human NEP, comparative examples, exact values.
Method: The assays were performed in 384-well white opaque plates at 37° C. using the fluorogenic peptide substrates at a concentration of 10 μM in Assay Buffer (NEP: 50 mM HEPES, pH 7.5, 100 mM NaCl, 0.01% polyethylene glycol sorbitan monolaurate (Tween-20), 10 μM ZnSO4; ACE: 50 mM HEPES, pH 7.5, 100 mM NaCl, 0.01% Tween-20, 1 μM ZnSO4).
Test compounds were assayed over the range of concentrations from 10 μM to 20 pM. Test compounds were added to the enzymes and incubated for 30 minute at 37° C. prior to initiating the reaction by the addition of substrate. Reactions were terminated after 20 minutes of incubation at 37° C. by the addition of glacial acetic acid to a final concentration of 3.6% (v/v).
Inhibition constants were obtained by nonlinear regression of the data using the equation (GraphPad Software, Inc., San Diego, Calif.): v=v0/[1+(I/K′)] where v is the reaction rate, v0 is the uninhibited reaction rate, I is the inhibitor concentration and K′ is the apparent inhibition constant.
`O=C(O)CCCC(=O)N[C@H](Cc1ccc(-c2ccccc2)cc1)CC(O)C(=O)O` (stereo partly drawn) [Comparative Compound E, (R)-5-Biphenyl-4-yl-4-(4-carboxybutyrylamino)-2-hydroxypentanoic Acid] gave a Ki of 50.1 nM.
On the same count and under the same terms, to `O=C(O)CC(=O)N[C@H](Cc1ccc(-c2ccccc2)cc1)C[C@@H](CO)C(=O)O` [Comparative Compound F, (2S,4S)-5-Biphenyl-4-yl-4-(2-carboxy-acetylamino)-2-hydroxymethylpentanoic Acid] belongs 6.31 nM; to `O=C(O)C(=O)N[C@H](Cc1ccc(-c2cccc(Cl)c2)cc1)C[C@@H](O)C(=O)O` [Example 2A, (2R,4R)-5-(3′-Chlorobiphenyl-4-yl)-2-hydroxy-4-(oxalylamino)pentanoic Acid], 0.2 nM; to `O=C(O)CC(=O)N[C@H](Cc1ccc(-c2ccccc2)cc1)CC(O)C(=O)O` (stereo partly drawn) [Comparative Compound C, (R)-5-Biphenyl-4-yl-4-(2-carboxyacetylamino)-2-hydroxypentanoic Acid], 200 nM.
On to `O=C(O)CCC(=O)N[C@H](Cc1ccc(-c2cccc(Cl)c2)cc1)C[C@@H](O)C(=O)O` [Comparative Compound J, (2R,4R)-4-(3-Carboxy-propionylamino)-5-(3′-chloro-biphenyl-4-yl)-2-hydroxy-pentanoic Acid], for which the affinity, expressed as Ki, was 0.316 nM.
As for `O=C(O)C(=O)N[C@H](Cc1ccc(-c2ccccc2)cc1)CC(O)C(=O)O` (stereo partly drawn) [Example 1, (R)-5-Biphenyl-4-yl-2-hydroxy-4-(oxalylamino)pentanoic Acid], the Ki was 12.6 nM.
With `O=C(O)CC(=O)N[C@H](Cc1ccc(-c2cccc(Cl)c2)cc1)C[C@@H](O)C(=O)O` [Comparative Compound I, (2R,4R)-4-(2-Carboxy-acetylamino)-5-(3′-chloro-biphenyl-4-yl)-2-hydroxy-pentanoic Acid], affinity was put at a Ki of 3.98 nM.
`O=C(O)CCC(=O)N[C@H](Cc1ccc(-c2ccccc2)cc1)CC(O)C(=O)O` (stereo partly drawn) [Comparative Compound D, (R)-5-Biphenyl-4-yl-4-(3-carboxypropionylamino)-2-hydroxypentanoic Acid]: the affinity corresponds to a Ki of 39.8 nM.
The same measure, in the same setting: in the case of `O=C(O)CCCC(=O)N[C@H](Cc1ccc(-c2cccc(Cl)c2)cc1)C[C@@H](O)C(=O)O` [Comparative Compound K, (2R,4R)-4-(4-Carboxy-butyrylamino)-5-(3′-chloro-biphenyl-4-yl)-2-hydroxy-pentanoic Acid] it was 0.501 nM; in that of `O=C(O)CCCC(=O)N[C@H](Cc1ccc(-c2ccccc2)cc1)C[C@@H](CO)C(=O)O` [Comparative Compound H, (2S,4S)-5-Biphenyl-4-yl-4-(4-carboxy-butyrylamino)-2-hydroxymethylpentanoic Acid], 2.51 nM; in that of `O=C(O)CCC(=O)N[C@H](Cc1ccc(-c2ccccc2)cc1)C[C@@H](CO)C(=O)O` [Comparative Compound G, (2S,4S)-5-Biphenyl-4-yl-4-(3-carboxy-propionylamino)-2-hydroxymethylpentanoic Acid], 1 nM.

The experiment is the same for the next values; noted with them: pKi values at human NEP, reported as ranges.
“(R)-3-N-(3,5′-Dichloro-2′-fluorobiphenyl-4-ylmethyl)-N′-oxalyl-hydrazinol-2-hydroxypropionic acid [Example 5-13]” had a pKi of at least 9.
Compound `O=C(N[C@H](Cc1ccc(-c2cccc(Cl)c2)cc1)C[C@@H](O)C(=O)O)C(=O)OCCC(F)(F)F` [Example 2N, (2R,4R)-5-(3′-Chlorobiphenyl-4-yl)-2-hydroxy-4-[(3,3,3-trifluoropropoxyoxalyl)-amino]pentanoic Acid] came in with a pKi of at least 9.
The compound `CC(C)COC(=O)C(=O)NN(Cc1ccc(-c2cc(Cl)ccc2F)cc1)C[C@@H](O)C(=O)O` [Example 14C, (R)-3-[N-(5′-Chloro-2′-fluorobiphenyl-4-ylmethyl)-N′-isobutoxyoxalylhydrazino]-2-hydroxypropionic Acid] gave a Ki of 1.26 to 10 nM.
The compound `O=C(O)C(=O)N[C@H](Cc1ccc(-c2ccccc2F)cc1)C[C@@H](CO)C(=O)O` [Example 7B, (2S,4S)-5-(2′-Fluorobiphenyl-4-yl)-2-hydroxymethyl-4-(oxalylamino)pentanoic Acid] had a Ki of at most 1 nM.
Still for that read-out and setting: to `CC(C)COC(=O)C(=O)N[C@H](Cc1ccc(-c2cc(Cl)ccc2Cl)cc1)C[C@@H](O)C(=O)O` [Example 3D, (2R,4R)-5-(2′,5′-Dichlorobiphenyl-4-yl)-2-hydroxy-4-(isobutoxyoxalylamino)-pentanoic Acid] belongs at most 1 nM.
For the compound “(2R,4R)-5-(3,3′-Dichlorobiphenyl-4-yl)-2-hydroxy-4-(oxalylamino)pentanoic acid ethyl ester [Example 5-17]”, the pKi is on record as at least 9.
Regarding `O=C(O)C(=O)NN(Cc1ccc(-c2cc(Cl)ccc2F)cc1)C[C@@H](O)C(=O)O` [Example 14A, (R)-3-[N-(5′-Chloro-T-fluorobiphenyl-4-ylmethyl)-N-oxalylhydrazino]-2-hydroxypropionic Acid], the Ki is at most 1 nM.

As usually defined, the Ki is a measure of affinity in units of concentration, obtained from inhibition or displacement. High values mean lower affinity, low ones higher affinity. In general, pKi refers to the negative decadic logarithm of the Ki, by convention in mol/L. Low readings indicate a high Ki, high ones a low Ki.
